This note sets out measurements from patent US11339130B1 (Blade Therapeutics, Inc., priority 2016, dated 2022).

Type in all cases: biochemical
One experiment has as its target T1, Human Calpain 1/NS1 (Homo sapiens, UniProt P07384).
T1 sequence (P07384 1-714): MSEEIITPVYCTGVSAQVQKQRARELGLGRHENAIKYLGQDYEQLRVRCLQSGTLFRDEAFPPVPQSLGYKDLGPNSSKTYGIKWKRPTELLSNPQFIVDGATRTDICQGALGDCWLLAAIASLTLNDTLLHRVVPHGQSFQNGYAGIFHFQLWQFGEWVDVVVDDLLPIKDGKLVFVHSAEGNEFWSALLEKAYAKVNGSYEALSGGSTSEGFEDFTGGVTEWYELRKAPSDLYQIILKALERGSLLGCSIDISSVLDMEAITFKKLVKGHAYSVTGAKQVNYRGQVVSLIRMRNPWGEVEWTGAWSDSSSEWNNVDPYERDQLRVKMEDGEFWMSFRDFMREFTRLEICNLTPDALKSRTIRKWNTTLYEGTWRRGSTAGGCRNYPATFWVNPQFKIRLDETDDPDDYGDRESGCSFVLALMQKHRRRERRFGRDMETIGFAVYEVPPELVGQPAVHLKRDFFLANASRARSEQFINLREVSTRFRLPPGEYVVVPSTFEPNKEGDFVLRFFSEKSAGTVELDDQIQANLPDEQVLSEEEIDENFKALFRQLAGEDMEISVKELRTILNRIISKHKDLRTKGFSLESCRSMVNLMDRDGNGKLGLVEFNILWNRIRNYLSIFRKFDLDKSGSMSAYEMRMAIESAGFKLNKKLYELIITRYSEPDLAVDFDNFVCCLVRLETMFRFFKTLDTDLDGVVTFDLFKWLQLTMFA
T1 sequence (P04632 1-268 partner): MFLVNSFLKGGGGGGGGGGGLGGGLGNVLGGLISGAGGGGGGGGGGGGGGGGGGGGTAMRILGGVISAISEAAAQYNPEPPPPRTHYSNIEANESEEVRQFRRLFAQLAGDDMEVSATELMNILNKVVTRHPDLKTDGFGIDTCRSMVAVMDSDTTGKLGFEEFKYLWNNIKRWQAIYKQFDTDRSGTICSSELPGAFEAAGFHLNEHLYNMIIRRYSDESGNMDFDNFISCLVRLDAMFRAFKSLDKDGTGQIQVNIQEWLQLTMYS
Kind of experiment: Calpain inhibition continuous fluorescence (FRET) assay, Human Calpain 1/NS1. To be noted: read-out: Human Calpain 1/NS1 IC50. In a few lines: (§1)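 Continuous FRET read (ex 490/em 520 nm, 10 min) of calpain 1, 2 or 9 cleaving an internally quenched 5-FAM peptide, triggered by substrate with CaCl2 after enzyme–inhibitor incubation at ambient 25 °C, pH 7.5 Tris/NaCl/DTT buffer. IC50 from initial rates (1-5 min) via 4-parameter fit.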

In the next experiment the target is T2, Human Calpain 9/NS1 (Homo sapiens, UniProt O14815).
T2 sequence (O14815 1-690): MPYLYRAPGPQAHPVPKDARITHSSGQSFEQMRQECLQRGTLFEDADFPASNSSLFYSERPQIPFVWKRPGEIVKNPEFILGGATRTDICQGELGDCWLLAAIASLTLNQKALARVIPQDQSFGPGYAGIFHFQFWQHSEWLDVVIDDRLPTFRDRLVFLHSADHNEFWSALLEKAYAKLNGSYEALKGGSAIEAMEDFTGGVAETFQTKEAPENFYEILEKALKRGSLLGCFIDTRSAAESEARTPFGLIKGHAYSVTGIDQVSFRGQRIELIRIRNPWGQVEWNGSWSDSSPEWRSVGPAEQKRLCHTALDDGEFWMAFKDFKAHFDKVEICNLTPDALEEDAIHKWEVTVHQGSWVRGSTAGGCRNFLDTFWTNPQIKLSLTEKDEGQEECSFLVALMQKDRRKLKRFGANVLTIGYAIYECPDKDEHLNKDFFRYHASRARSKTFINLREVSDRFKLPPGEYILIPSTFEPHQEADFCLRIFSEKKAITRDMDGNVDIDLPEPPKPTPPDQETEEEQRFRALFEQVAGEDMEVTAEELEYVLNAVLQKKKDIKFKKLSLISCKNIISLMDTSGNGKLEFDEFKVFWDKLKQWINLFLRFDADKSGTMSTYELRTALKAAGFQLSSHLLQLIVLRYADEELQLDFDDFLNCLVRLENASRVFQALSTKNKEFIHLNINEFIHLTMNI
T2 sequence (P04632 1-268 partner): T1 sequence (P04632 1-268 partner)
Kind of experiment: Calpain inhibition continuous fluorescence (FRET) assay, Human Calpain 9/NS1. The conditions noted are these: read-out: Human Calpain 9/NS1 IC50. In a few lines:
as §1

A further experiment has as its target T3, Human Calpain 2/NS1 (Homo sapiens, UniProt P17655).
T3 sequence (P17655 1-700): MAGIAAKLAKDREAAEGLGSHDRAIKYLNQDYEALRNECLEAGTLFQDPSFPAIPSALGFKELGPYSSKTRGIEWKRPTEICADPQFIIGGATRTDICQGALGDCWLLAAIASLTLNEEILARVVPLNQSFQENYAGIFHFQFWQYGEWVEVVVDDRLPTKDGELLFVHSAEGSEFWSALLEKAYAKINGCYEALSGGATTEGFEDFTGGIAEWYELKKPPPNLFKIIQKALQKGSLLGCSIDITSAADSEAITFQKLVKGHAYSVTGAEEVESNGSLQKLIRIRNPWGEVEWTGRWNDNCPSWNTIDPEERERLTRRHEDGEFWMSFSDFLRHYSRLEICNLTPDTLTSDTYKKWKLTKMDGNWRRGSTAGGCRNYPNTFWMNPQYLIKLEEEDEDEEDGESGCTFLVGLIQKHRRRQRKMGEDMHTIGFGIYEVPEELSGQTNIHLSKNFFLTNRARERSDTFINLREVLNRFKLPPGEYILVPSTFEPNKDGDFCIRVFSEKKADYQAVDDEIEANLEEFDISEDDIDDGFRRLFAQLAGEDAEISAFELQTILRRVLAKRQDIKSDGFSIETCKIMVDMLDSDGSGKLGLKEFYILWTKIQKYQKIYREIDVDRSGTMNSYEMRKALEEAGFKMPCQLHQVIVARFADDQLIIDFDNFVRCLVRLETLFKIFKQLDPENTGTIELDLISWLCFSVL
T3 sequence (P04632 1-268 partner): T1 sequence (P04632 1-268 partner)
Put plainly: Calpain inhibition continuous fluorescence (FRET) assay, Human Calpain 2/NS1. To be noted: read-out: Human Calpain 2/NS1 IC50. In a few lines: as §1

Like-named read-outs stand apart in the source and are kept apart here.

For the compound `Cn1cc(C(=O)NC(Cc2cccc(C(F)(F)F)c2)C(=O)C(N)=O)c(-c2ccccc2F)n1` (stereo not drawn) [Compound 623, N-(4-amino-3,4-dioxo-1-(3-(trifluoromethyl)phenyl)butan-2-yl)-3-(2-fluorophenyl)-1-methy 1-1H-pyrazole-4-carboxamide], the IC50 at Human Calpain 1/NS1, at Human Calpain 9/NS1 and on Human Calpain 2/NS1 was < 3 µM each time.

For the compound `Cc1cc(C(=O)N[C@@H](Cc2ccccc2)C(=O)C(=O)NC2CC2)n(-c2cnccn2)n1` [Compound 85, (S)—N-(4-(cyclopropylamino)-3,4-dioxo-1-phenylbutan-2-yl)-3-methyl-1-(pyrazin-2-yl)-1H-pyrazole-5-carboxamide], the IC50 at Human Calpain 1/NS1 (Column A), at Human Calpain 9/NS1 (Column C) and on Human Calpain 2/NS1 (Column B) was < 3 µM throughout.

Turning to `Cn1nc(Br)c(C(=O)NC(Cc2ccccc2)C(=O)C(N)=O)c1Cl` (stereo not drawn) [Compound 274, N-(4-amino-3,4-dioxo-1-phenylbutan-2-yl)-3-bromo-5-chloro-1-methyl-1H-pyrazole-4-carboxamide], the IC50 at Human Calpain 1/NS1 (Column A), at Human Calpain 9/NS1 (Column C) and at Human Calpain 2/NS1 (Column B) was < 3 µM each time.

Take `Cc1noc(-c2ccccc2)c1C(=O)N[C@@H](Cc1ccccc1)C(=O)C(=O)NCc1cccc(S(C)(=O)=O)c1` [Compound 152, (s)-3-methyl-N-(4-((3-(methylsulfonyl)benzyl)amino)-3,4-dioxo-1-phenylbutan-2-yl)-5-phenylisoxazole-4-carboxamide]: the IC50 on Human Calpain 1/NS1 (Column A), on Human Calpain 9/NS1 (Column C) and at Human Calpain 2/NS1 (Column B) was < 3 µM in each case.

Take `Cn1cc(C(=O)NC(Cc2ccccc2)C(=O)C(N)=O)c(-c2ccc(C(F)(F)F)nc2)n1` (stereo not drawn) [Compound 315, N-(4-amino-3,4-dioxo-1-phenylbutan-2-yl)-1-methyl-3-(6-(trifluoromethyl)pyridin-3-yl)-1H-pyrazole-4-carboxamide]: the IC50 was 3 to 10 µM at Human Calpain 1/NS1, < 3 µM at Human Calpain 9/NS1 and 3 to 10 µM at Human Calpain 2/NS1.

On to `Cc1cc(C(=O)N[C@@H](Cc2ccccc2)C(=O)C(=O)NC2CC2)n(-c2cncnc2)n1` [Compound 127], for which the IC50 on Human Calpain 1/NS1 (Column A), on Human Calpain 9/NS1 (Column C) and on Human Calpain 2/NS1 (Column B) was < 3 µM each time.

Consider `Cc1cc(C(=O)NC(Cc2ccccc2)C(=O)C(N)=O)n(-c2ccncn2)n1` (stereo not drawn) [Compound 409, N-(4-amino-3,4-dioxo-1-phenylbutan-2-yl)-3-methyl-1-(pyrimidin-4-yl)-1H-pyrazole-5-carboxamide], for which the IC50 at Human Calpain 1/NS1, at Human Calpain 9/NS1 and on Human Calpain 2/NS1 was < 3 µM in each case.

Take `NC(=O)C(=O)C(Cc1ccccc1)NC(=O)c1cnoc1Cc1ccccc1` (stereo not drawn) [Compound 491, N-(4-amino-3,4-dioxo-1-phenylbutan-2-yl)-5-benzylisoxazole-4-carboxamide]: the IC50 is < 3 µM on Human Calpain 1/NS1, 3 to 10 µM on Human Calpain 9/NS1 and < 3 µM on Human Calpain 2/NS1.

Turning to `NC(=O)C(=O)[C@H](Cc1ccccc1)NC(=O)c1scnc1-c1ccccn1` [Compound 109, (S)—N-(4-amino-3,4-dioxo-1-phenylbutan-2-yl)-4-(pyridin-2-yl)thiazole-5-carboxamide], the IC50 on Human Calpain 1/NS1 (Column A), on Human Calpain 9/NS1 (Column C) and at Human Calpain 2/NS1 (Column B) was < 3 µM throughout.

`Cn1cc(C(=O)NC(Cc2ccccc2)C(=O)C(N)=O)c(-c2coc3ccccc23)n1` (stereo not drawn) [Compound 628, N-(4-amino-3,4-dioxo-1-phenylbutan-2-yl)-3-(benzofuran-3-yl)-1-methyl-1H-pyrazole-4-carboxamide]: the IC50 at Human Calpain 1/NS1, on Human Calpain 9/NS1 and at Human Calpain 2/NS1 was < 3 µM each time.

As for `Cc1cc(C(=O)N[C@@H](Cc2ccccc2)C(=O)C(=O)NC2CC2)n(-c2cccnc2)n1` [Compound 132, (S)—N-(4-(cyclopropylamino)-3,4-dioxo-1-phenylbutan-2-yl)-3-methyl-1-(pyridin-3-yl)-1H-pyrazole-5-carboxamide], the IC50 on Human Calpain 1/NS1 (Column A), at Human Calpain 9/NS1 (Column C) and on Human Calpain 2/NS1 (Column B) was < 3 µM throughout.

In the case of `Cn1cc(C(=O)NC(Cc2ccccc2)C(=O)C(N)=O)c(C(=O)c2ccccc2)n1` (stereo not drawn) [Compound 395, N-(4-amino-3,4-dioxo-1-phenylbutan-2-yl)-3-benzoyl-1-methyl-1H-pyrazole-4-carboxamide], the IC50 at Human Calpain 1/NS1 is > 10 µM; on Human Calpain 9/NS1 it was 3 to 10 µM; on Human Calpain 2/NS1 it was 3 to 10 µM.

`C=CC[C@H](NC(=O)c1cn(C)nc1-c1ccccc1)C(=O)C(N)=O` [Compound 195, N-(1-amino-1,2-dioxohex-5-en-3-yl)-1-methyl-3-phenyl-1H-pyrazole-4-carboxamide]: the IC50 at Human Calpain 1/NS1 (Column A) is < 3 µM; on Human Calpain 9/NS1 (Column C), < 3 µM; at Human Calpain 2/NS1 (Column B) it was 3 to 10 µM.

For `Cc1noc(-c2ccccc2)c1C(=O)N[C@@H](CCc1ccccc1)C(=O)C(N)=O` [Compound 205, (S)—N-(1-amino-1,2-dioxo-5-phenylpentan-3-yl)-3-methyl-5-phenylisoxazole-4-carboxamide], the IC50 at Human Calpain 1/NS1 (Column A), on Human Calpain 9/NS1 (Column C) and at Human Calpain 2/NS1 (Column B) was < 3 µM each time.

For the compound `O=C(NC1CC1)C(=O)[C@H](Cc1ccccc1)NC(=O)c1cncn1-c1ccc(-c2ncco2)cn1` [Compound 89, (S)—N-(4-(cyclopropylamino)-3,4-dioxo-1-phenylbutan-2-yl)-1-(5-(oxazol-2-yl)pyridin-2-yl)-1H-imidazole-5-carboxamide], the IC50 at Human Calpain 1/NS1 (Column A) was < 3 µM; on Human Calpain 9/NS1 (Column C), 3 to 10 µM; at Human Calpain 2/NS1 (Column B), < 3 µM.

On to `O=C(NC1CC1)C(=O)[C@H](Cc1ccccc1)NC(=O)c1cncn1-c1ncc(-c2ccccc2)s1` [Compound 53, (S)—N-(4-(cyclopropylamino)-3,4-dioxo-1-phenylbutan-2-yl)-1-(5-phenylthiazol-2-yl)-1H-imidazole-5-carboxamide], for which the IC50 at Human Calpain 1/NS1 (Column A) was < 3 µM; on Human Calpain 9/NS1 (Column C), 3 to 10 µM; on Human Calpain 2/NS1 (Column B), < 3 µM.
